In brackets after ≈: the same amount, converted by molar mass. Activity calls are given as the source filed them. No cut-off for these calls is given here.

For assay [1], the system named is Nucleic Acid. The assay is described as follows: Induction of DNA strand scission activity in Escherichia coli pBR322 at 25 ug/mL by electrophoresis. Type of assay: nucleic-acid assay.
The next assay has as its system KB. The assay is described as follows: Cytotoxicity against human KB cells. Type of assay: functional. As to conditions: read-out: ED50 (the source's name).
For assay [2], the system named is Nucleic Acid. Nature of the assay: Induction of DNA strand scission activity in Escherichia coli pBR322 at 0.1 ug/mL by electrophoresis. Type of assay: nucleic-acid assay.

`Oc1ccc2c(c1)OC[C@@H]1c3cc4c(cc3O[C@H]21)OCO4` [(+)-MAACKIAIN]: in the assay with Nucleic Acid [1], the outcome was inactive. In addition, the EC50 in the assay on KB amounted to 5.6 mg/L (≈ 19.7 µM).
The like results for `COc1ccc2c(c1O)OC[C@@H]1c3cc4c(cc3O[C@H]21)OCO4` were, in that order, “inactive” and 4 mg/L (≈ 12.7 µM).
The like results for `Oc1ccc2c(c1O)OC[C@@H]1c3cc4c(cc3O[C@H]21)OCO4` were, in that order, “Active” and 0.9 mg/L (≈ 3 µM).
For BLEOMYCIN SULFATE, the result in the assay on Nucleic Acid [2] was Active.

(Values after ChEMBL document CHEMBL1150104, “Isolation and structure identification of an active DNA strand-scission agent, (+)-3,4-di-hydroxy-8,9-methylenedioxypterocarpan” (1995).)
